Source: patent publication US10168342B2, “Lipid probes and uses thereof” (THE SCRIPPS RESEARCH INSTITUTE, priority 2015, dated 2019)

Assays:
Assay in all cases: isoTOP-ABPP mapping of AEA-DA-modified peptides in Neuro2a cells
Format in all cases: cell-based
[1] = biological target: T1, AEA-DA-modified peptides in Neuro2a cells (Mus musculus, UniProt Q8C4B4); conditions: AEA-DA-modified peptide UNC119B Q8C4B4 142-151, SEQ ID NO 118; probe 100 μM, 12 replicates
T1 construct: endogenous in cells; host or cells: Neuro2a
T1 sequence (Q8C4B4 whole entry): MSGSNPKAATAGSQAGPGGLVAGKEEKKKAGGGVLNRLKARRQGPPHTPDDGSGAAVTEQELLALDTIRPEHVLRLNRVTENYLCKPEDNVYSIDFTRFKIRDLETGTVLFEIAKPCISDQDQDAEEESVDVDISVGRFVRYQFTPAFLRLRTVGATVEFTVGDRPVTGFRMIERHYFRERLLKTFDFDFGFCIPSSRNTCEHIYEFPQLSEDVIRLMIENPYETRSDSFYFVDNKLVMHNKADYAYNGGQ
Experimental: (§1) Experiments were performed as described above using the AEA-DA probe (100 μM) in 3.0 mL of DMEM (serum-free) and Neuro2A cells without (twelve replicates; ten biological; two technical). For the ligand competition study, cells were treated with the AEA-DA probe (50 μM) and DMSO or MJN228 (50 μM) treatment. Cells were harvested and processed as described above. Whole cell lysates (500 μL at 1.5 mg/mL) were processed for MS analysis using the previously described isoTOPABPP protocol (Speers and Cravatt, 2005). In brief, for global mapping of AEA-DA-modified peptides, proteomes were split into two fractions, which were subjected to click chemistry conditions with either light or heavy isotopically labeled TEV-tags. For the […] competition study, proteomes were subjected to click chemistry conditions with either light (DMSO) or heavy (MJN228-treated) TEV-tags. Light and heavy-tagged proteomes in each experiment were then combined, and, following enrichment of probe-labeled targets using streptavidin beads, proteins were digested on-bead with trypsin and remaining immobilized peptides released with a subsequent TEV protease digestion. The resulting probe-modified peptides were collected for MS analysis, which was performed as described above with differences in the salt bumps applied in the chromatographic gradients which were 0%, 30%, 60%, 90% and 100% NH4OAc (500 mM). The protein identification searches of the MS data were performed using the same software packages described above with the following changes applied to identify the peptides modified with AEA-DA and the cleaved TEV tag. All amino acids were considered as possible residues for modification. To facilitate the computational searches, sets of up to 3 amino acids were searched using ProLuCID and filtered with DTASelect as described above. The mass of the modification used to search for probe-modified peptides was +727.4745 m/z for the probe plus the light TEV-tag and +733.4831 m/z for the heavy counterpart. […] For global mapping experiments, AEA-DA-modified peptides were expected to show a ratio of “heavy” and “light” signals of ˜1.0 (0.5<ratio<2.0) and were required to have been detected in at least two of the twelve replicate experiments.
(§2) In some embodiments, the ligands are tested for their interaction to NUCB1 in cells. […] MJN228 inhibited lipid probe binding to NUCB1 at concentrations as low as 10 μM, with near-maximal inhibition observed at ˜25 μM (FIG. 16A). […] The site of arachidonoyl probe (and MJN228) binding to NUCB1 was mapped in cells, which was accomplished by treating Neuro2A cells with the AEA-DA probe (50 μM) in the presence of DMSO or MJN228 (50 μM), followed by UV irradiation, CuAAC conjugation of AEA-DA-labeled proteins to isotopically light (DMSO-treated cells) and heavy (MJN228-treated cells) azide-biotin tags featuring a TEV protease-cleavable linker, and LCMS/MS analysis using a previously described platform, termed isoTOP-ABPP, for mapping probe-modified peptides in proteomes (Speers and Cravatt, 2005). A AEA-DA labeled peptide was identified for NUCB1 (aa 53-68) in DMSO-treated cells and the signals for this peptide were substantially (>5-fold) reduced in MJN228-treated cells (FIG. 15C). This AEA-DA labeling site was confirmed using recombinant, purified hNUCB1 and tandem MS analysis which narrowed down the site of probe modification to His67 (FIGS. 16B and 16C).

[2] = biological target: T2, AEA-DA-modified peptides in Neuro2a cells (Mus musculus, UniProt P48678); conditions: AEA-DA-modified peptide LMNA P48678 281-297, SEQ ID NO 55; probe 100 μM, 12 replicates
T2 construct: endogenous in cells; host or cells: Neuro2a
T2 sequence (P48678 whole entry): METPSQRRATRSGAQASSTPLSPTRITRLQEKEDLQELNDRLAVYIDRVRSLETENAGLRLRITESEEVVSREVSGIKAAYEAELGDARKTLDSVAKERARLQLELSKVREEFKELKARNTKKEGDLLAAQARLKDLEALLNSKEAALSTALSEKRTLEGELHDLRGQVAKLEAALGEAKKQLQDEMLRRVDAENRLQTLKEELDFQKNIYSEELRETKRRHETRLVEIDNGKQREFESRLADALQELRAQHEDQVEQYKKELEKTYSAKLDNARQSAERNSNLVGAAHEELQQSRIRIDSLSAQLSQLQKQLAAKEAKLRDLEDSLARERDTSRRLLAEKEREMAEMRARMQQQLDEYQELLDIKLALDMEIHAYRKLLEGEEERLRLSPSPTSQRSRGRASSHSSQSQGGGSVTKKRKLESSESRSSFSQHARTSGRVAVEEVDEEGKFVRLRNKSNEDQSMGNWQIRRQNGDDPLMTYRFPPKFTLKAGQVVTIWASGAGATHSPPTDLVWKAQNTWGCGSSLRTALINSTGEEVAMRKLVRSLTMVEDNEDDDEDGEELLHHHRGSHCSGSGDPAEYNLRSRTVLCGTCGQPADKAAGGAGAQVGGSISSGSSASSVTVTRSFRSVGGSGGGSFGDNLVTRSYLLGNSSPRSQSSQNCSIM
Experimental: as §1, §2

[3] = biological target: T3, AEA-DA-modified peptides in Neuro2a cells (Mus musculus, UniProt P00375); conditions: AEA-DA-modified peptide DHFR P00375 20-34, SEQ ID NO 30; probe 100 μM, 12 replicates
T3 construct: endogenous in cells; host or cells: Neuro2a
T3 sequence (P00375 whole entry): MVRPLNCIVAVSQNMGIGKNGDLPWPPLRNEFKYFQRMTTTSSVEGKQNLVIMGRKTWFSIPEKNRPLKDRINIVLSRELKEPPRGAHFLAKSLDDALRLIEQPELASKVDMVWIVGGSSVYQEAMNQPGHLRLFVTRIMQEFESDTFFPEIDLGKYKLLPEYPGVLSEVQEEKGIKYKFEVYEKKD
Experimental: as §1, §2

[4] = biological target: T4, AEA-DA-modified peptides in Neuro2a cells (Mus musculus, UniProt Q9CZN7); conditions: probe 100 μM, 12 replicates
T4 construct: endogenous in cells; host or cells: Neuro2a
T4 sequence (Q9CZN7 30-504): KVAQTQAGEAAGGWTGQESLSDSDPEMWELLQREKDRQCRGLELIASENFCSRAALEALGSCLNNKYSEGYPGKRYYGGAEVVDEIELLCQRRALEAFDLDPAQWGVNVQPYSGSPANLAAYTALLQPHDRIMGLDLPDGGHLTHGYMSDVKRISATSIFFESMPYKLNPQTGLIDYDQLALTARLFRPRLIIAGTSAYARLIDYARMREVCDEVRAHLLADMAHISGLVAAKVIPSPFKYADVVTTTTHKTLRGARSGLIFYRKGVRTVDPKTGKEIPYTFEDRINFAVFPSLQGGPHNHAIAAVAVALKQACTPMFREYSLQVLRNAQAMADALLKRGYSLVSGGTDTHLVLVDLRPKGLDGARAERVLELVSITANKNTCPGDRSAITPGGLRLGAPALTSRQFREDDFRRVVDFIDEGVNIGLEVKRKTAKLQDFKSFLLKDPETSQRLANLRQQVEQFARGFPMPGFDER
Experimental: as §1, §2

[5] = biological target: T5, AEA-DA-modified peptides in Neuro2a cells (Mus musculus, UniProt P57776); conditions: AEA-DA-modified peptide EEF1D P57776 25-39, SEQ ID NO 35; probe 100 μM, 12 replicates
T5 construct: endogenous in cells; host or cells: Neuro2a
T5 sequence (P57776 whole entry): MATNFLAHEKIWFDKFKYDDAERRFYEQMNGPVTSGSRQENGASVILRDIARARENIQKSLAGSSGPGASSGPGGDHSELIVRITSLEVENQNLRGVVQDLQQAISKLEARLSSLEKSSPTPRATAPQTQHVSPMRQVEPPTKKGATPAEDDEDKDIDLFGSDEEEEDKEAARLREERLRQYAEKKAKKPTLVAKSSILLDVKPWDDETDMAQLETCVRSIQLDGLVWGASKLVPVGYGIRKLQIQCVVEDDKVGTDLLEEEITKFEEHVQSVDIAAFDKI
Experimental: as §1, §2

[6] = biological target: T6, AEA-DA-modified peptides in Neuro2a cells (Mus musculus, UniProt Q8VDN2); conditions: AEA-DA-modified peptide ATP1A1 Q8VDN2 360-386, SEQ ID NO 17; probe 100 μM, 12 replicates
T6 construct: endogenous in cells; host or cells: Neuro2a
Experimental: as §1, §2

[7] = biological target: T7, AEA-DA-modified peptides in Neuro2a cells (Mus musculus, UniProt P36536); conditions: AEA-DA-modified peptide SAR1A P36536 192-199, SEQ ID NO 95; probe 100 μM, 12 replicates
T7 construct: endogenous in cells; host or cells: Neuro2a
T7 sequence (P36536 whole entry): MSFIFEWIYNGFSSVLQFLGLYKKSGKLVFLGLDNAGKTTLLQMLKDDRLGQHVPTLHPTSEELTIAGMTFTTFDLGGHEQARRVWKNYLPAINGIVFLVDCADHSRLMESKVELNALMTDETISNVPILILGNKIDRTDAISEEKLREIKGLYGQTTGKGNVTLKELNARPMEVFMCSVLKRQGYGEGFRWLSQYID
Experimental: as §1, §2

[8] = biological target: T8, AEA-DA-modified peptides in Neuro2a cells (Mus musculus, UniProt Q9DCC8); conditions: AEA-DA-modified peptide TOMM20 Q9DCC8 69-89, SEQ ID NO 115; probe 100 μM, 12 replicates
T8 construct: endogenous in cells; host or cells: Neuro2a
T8 sequence (Q9DCC8 whole entry): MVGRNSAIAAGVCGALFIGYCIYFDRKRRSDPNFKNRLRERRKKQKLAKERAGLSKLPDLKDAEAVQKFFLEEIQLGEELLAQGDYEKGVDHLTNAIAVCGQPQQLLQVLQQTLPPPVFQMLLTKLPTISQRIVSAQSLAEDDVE
Experimental: as §1, §2

[9] = biological target: T9, AEA-DA-modified peptides in Neuro2a cells (Mus musculus, UniProt P21619); conditions: AEA-DA-modified peptide LMNB2 P21619 137-160, SEQ ID NO 57; probe 100 μM, 12 replicates
T9 construct: endogenous in cells; host or cells: Neuro2a
T9 sequence (P21619 whole entry): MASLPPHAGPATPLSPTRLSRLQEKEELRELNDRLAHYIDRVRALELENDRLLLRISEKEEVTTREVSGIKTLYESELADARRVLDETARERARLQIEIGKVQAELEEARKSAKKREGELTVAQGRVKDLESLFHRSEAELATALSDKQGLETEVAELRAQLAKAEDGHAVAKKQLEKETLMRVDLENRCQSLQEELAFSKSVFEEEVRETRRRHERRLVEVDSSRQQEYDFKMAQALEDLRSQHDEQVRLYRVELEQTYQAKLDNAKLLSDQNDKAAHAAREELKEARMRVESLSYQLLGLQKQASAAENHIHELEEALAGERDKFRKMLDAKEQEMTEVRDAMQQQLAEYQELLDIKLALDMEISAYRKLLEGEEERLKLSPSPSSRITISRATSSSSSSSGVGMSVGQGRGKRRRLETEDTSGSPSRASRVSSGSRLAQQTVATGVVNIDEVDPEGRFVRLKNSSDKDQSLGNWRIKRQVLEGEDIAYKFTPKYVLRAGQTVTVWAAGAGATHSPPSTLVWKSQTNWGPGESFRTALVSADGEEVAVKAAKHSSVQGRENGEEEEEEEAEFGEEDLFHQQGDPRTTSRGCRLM
Experimental: as §1, §2

[10] = biological target: T10, AEA-DA-modified peptides in Neuro2a cells (Mus musculus, UniProt Q99KQ4); conditions: probe 100 μM, 12 replicates
T10 construct: endogenous in cells; host or cells: Neuro2a
T10 sequence (Q99KQ4 whole entry): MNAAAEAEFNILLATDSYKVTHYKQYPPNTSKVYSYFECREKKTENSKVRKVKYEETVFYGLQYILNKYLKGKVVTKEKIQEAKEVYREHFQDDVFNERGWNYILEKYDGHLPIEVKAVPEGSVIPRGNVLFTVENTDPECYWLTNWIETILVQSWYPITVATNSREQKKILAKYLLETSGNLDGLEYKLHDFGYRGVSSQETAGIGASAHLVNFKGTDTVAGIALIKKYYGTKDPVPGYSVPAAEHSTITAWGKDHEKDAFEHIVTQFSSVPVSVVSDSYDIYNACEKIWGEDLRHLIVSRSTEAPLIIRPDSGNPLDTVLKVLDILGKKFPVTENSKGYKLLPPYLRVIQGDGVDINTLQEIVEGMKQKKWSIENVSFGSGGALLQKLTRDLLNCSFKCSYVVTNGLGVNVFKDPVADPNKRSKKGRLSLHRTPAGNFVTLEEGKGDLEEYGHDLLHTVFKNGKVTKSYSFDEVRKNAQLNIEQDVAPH
Experimental: as §1, §2

[11] = biological target: T11, AEA-DA-modified peptides in Neuro2a cells (Mus musculus, UniProt Q9CPU0); conditions: AEA-DA-modified peptide GLO1 Q9CPU0 160-180, SEQ ID NO 42; probe 100 μM, 12 replicates
T11 construct: endogenous in cells; host or cells: Neuro2a
T11 sequence (Q9CPU0 whole entry): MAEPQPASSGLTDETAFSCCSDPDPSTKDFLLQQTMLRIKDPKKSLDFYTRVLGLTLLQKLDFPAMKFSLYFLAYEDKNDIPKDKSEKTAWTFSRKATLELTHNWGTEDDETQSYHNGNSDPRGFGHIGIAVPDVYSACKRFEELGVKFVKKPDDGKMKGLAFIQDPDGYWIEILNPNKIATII
Experimental: as §1, §2

Compound: C#CCCCC1(CC/C=C\C/C=C\C/C=C\CCCC(=O)NCCO)N=N1 [AEA-DA, (5Z,8Z,11Z)-N-(2-hydroxyethyl)-14-(3-(pent-4-yn-1-yl)-3H-diazirin-3-yl)tetradeca-5,8,11-trienamide]
- Times observed [1]: 3
- Times observed [2]: 2
- Times observed [3]: 4
- Times observed ([4]; AEA-DA-modified peptide SHMT2 Q9CZN7 105-122, SEQ ID NO 101): 9
- Times observed ([4]; AEA-DA-modified peptide SHMT2 Q9CZN7 161-182, SEQ ID NO 102): 3
- Times observed [5]: 10
- Times observed [6]: 2
- Times observed [7]: 6
- Times observed [8]: 7
- Times observed [9]: 5
- Times observed ([10]; AEA-DA-modified peptide NAMPT Q99KQ4 175-190, SEQ ID NO 64): 10
- Times observed ([10]; AEA-DA-modified peptide NAMPT Q99KQ4 303-324, SEQ ID NO 65): 2
- Times observed [11]: 2
